Test results reported in patent US20220002226A1, “Amorphous Form of Chelating Agents and Process for Preparing them” (Hovione Scientia Limited, priority 2018, published 2022).

Assays:
[1] = cited from earlier work
[2] = Solubility test according to European Pharmacopoeia (Ph. Eur. 5.11): increasing amounts of water added to 100 mg of powder; assay type: physicochemical; conditions: 22° C.; for 100 mg dissolved in stated volume of water (YES/No): 100 mg powder
Procedure: Characters section in monographs. This was used in the tests below.
Solubility was assessed using the European Pharmacopeia method referred to above where increasing amounts of water are added to 100 mg of powder until its complete dissolution (or otherwise).
Characters section in monographs.

[3] = 0.1 ml water, Ph. Eur. class Very soluble
[4] = 1.0 ml water, Ph. Eur. class Freely soluble
[5] = 3.0 ml water, Ph. Eur. class Soluble
[6] = 10.0 ml water, Ph. Eur. class Sparingly soluble
[7] = 20.0 ml water, Ph. Eur. class Slightly soluble
[8] = 30.0 ml water, Ph. Eur. class Very slightly soluble
[9] = 40.0 ml water, Ph. Eur. class Insoluble
[10] = 50.0 ml water, Ph. Eur. class printed Insoluble (Tables 2, 6), Very slightly soluble (Table 4)
[11] = 60.0 ml water, Ph. Eur. class Insoluble
[12] = 70.0 ml water, Ph. Eur. class Insoluble
[13] = 80.0 ml water, Ph. Eur. class Insoluble

Compound | solubility in water (prior-art statement) [1] | 100 mg dissolved in stated volume of water (YES/No) [2, 3] | 100 mg dissolved in stated volume of water (YES/No) [2, 4] | 100 mg dissolved in stated volume of water (YES/No) [2, 5] | 100 mg dissolved in stated volume of water (YES/No) [2, 6] | 100 mg dissolved in stated volume of water (YES/No) [2, 7] | 100 mg dissolved in stated volume of water (YES/No) [2, 8] | solubility compared with the corresponding crystalline form ([2]; Ph. Eur. solubility test, water) | 100 mg dissolved in stated volume of water (YES/No) [2, 9] | 100 mg dissolved in stated volume of water (YES/No) [2, 10] | 100 mg dissolved in stated volume of water (YES/No) [2, 11] | 100 mg dissolved in stated volume of water (YES/No) [2, 12] | 100 mg dissolved in stated volume of water (YES/No) [2, 13]
O=C(O)CN(CCN(CC(=O)O)CC(=O)O)CCN(CC(=O)O)CC(=O)O [DTPA, diethylenetriaminepentaacetic acid] | soluble in water only at higher pH (around 8) |  |  |  |  |  |  |  |  |  |  |  | 
O=C(O)CN(CCN(CC(=O)O)CC(=O)O)CCN(CC(=O)O)CC(=O)O [DTPA Amorphous pharma grade, diethylenetriaminepentaacetic acid] |  | No | No | No | No | No | YES | higher solubility |  |  |  |  | 
O=C(O)CN(CCN(CC(=O)O)CC(=O)O)CCN(CC(=O)O)CC(=O)O [DTPA Crystalline Industrial grade, diethylenetriaminepentaacetic acid] |  | No | No | No | No | No | No |  | No | No | No | No | YES
O=C(O)CN(CCN(CC(=O)O)CC(=O)O)CCN(CC(=O)O)CC(=O)O [DTPA Crystalline pharma grade, diethylenetriaminepentaacetic acid] |  | No | No | No | No | No | No |  | No | No | No | No | YES
